Laboratory results taken from PubChem BioAssay (NCI).
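Following 48 hours of exposure in 96-well plates, responses at five concentrations were used to interpolate endpoints linearly. GI50 marks 50% less growth. Definition used: TGI = concentration required for complete inhibition of growth.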

Each molecule was assayed on MDA-MB-468 breast (assay: NCI tumour cell line growth inhibition, 48 h).

First: O=S(=O)(Nc1ccc(Cl)c(Cl)c1)c1ccc(-c2cnc(C3CC3)o2)cc1
Second: N=C(N)c1ccc(-c2ccc(-c3ccc(Cl)cc3Cl)s2)nc1
The GI50 of the first is 7.7-fold lower: 222 nM for the first, 1720 nM for the second.

Compared with `C[C@@H]1Cc2c(ccc3[nH]ncc23)[C@@H](c2ccc(NC3CN(CCCF)C3)cn2)N1CC(F)(F)F`, `CNc1nc(-c2ccc3c(N)n[nH]c3c2)cc(N2C[C@@H](C(=O)NC3CCCCC3)CC[C@H]2C)n1` is 50-fold lower in GI50: 13400 nM for the first, 270 nM for the second.

Going from `COc1ccc(S(=O)(=O)Nc2cc(Sc3cccc4cccnc34)c(O)c3ccccc23)cc1` to `CS(=O)(=O)CCNCc1ccoc1-c1ccc2ncnc(Nc3ccc(OCc4ccccc4)cc3)c2c1`, the GI50 falls from 1150 nM to 506 nM (2.3-fold).

Compared with `Cc1nc2sc(C(=O)Nc3ccccc3)c(N)c2cc1C(=O)c1ccccc1`, `c1ccc(-c2cc3n4c(-c5ccccc5)nn(-c5ccccc5)c4cnc-3n2)cc1` is 1.7-fold higher in GI50: 2590 nM for the first, 4380 nM for the second.

Compared with `CCOC(=O)N(O)c1ccc(/C=C/c2ccccc2)cc1`, `C[C@@H](C[C@H](CCO)c1ccccc1)c1ccc2ccccc2c1` is 61-fold higher in GI50: 25 nM for the first, 1530 nM for the second.

Compared with `c1ccc2c(NCCCN3CCOCC3)c3oc4ccccc4c3nc2c1`, `Cn1cc(-c2csc(-c3cn(C(=O)OC(C)(C)C)c4ccccc34)n2)c2cccnc21` is 1.6-fold lower in GI50: 1360 nM for the first, 865 nM for the second.

First: COC(=O)c1cc(C)[nH]c2c(C)cc3nc4ccccc4c3c12
Second: Cc1c2ccccc2c(C)n2c1nc1cc(Cl)c(Cl)cc12
The GI50 of the first is 7.3-fold lower: 3760 nM for the first, 27600 nM for the second.

Compared with `CC1=C(SCCC(=O)OC(C[Se]C2=C(C)C(=O)c3ccccc3C2=O)C(=O)NC(C)(C)C)C(=O)c2ccccc2C1=O` (stereo not given), `CC(C)(C)c1ccc(CC(=O)Nc2sc3c(c2C(N)=O)CCC(=O)C3)cc1` is 6.1-fold higher in GI50: 226 nM for the first, 1380 nM for the second.

First: CN(C)CCOc1ccc2c(c1)C(=O)/C(=C\c1ncc([N+](=O)[O-])n1C)C2
Second: COc1ccc(C2C3=C(COC3=O)N(CCO)c3cc4c(cc32)CCC4)cc1 (stereo not given)
The GI50 of the first is 7.2-fold lower: 188 nM for the first, 1360 nM for the second.

First: O=C(N/N=C/c1ccc(N(CCCl)CCCl)cc1)c1ccc(C(=O)N/N=C/c2ccc(N(CCCl)CCCl)cc2)cc1
Second: CNC(=O)c1cc(-c2ccc(F)cc2)cc(-c2ccc(S(=O)(=O)N3CCCC3)cc2)c1N
The GI50 of the first is 3.4-fold lower: 1600 nM for the first, 5480 nM for the second.

Compared with `COc1cc2c(=O)n(CC3CCCCC3)c3c4cc[nH]c4ncc3c2cc1OC`, `COc1ccc(F)cc1-c1ccnc2[nH]c(C3=CCN(C4CCC(CC(=O)O)CC4)CC3)cc12` (stereo not given) is 59-fold lower in GI50: 4610 nM for the first, 77.9 nM for the second.

Compared with `CCCCCCCCc1cc(O)ccc1O`, `COC(=O)Nc1nc2ccc(C(=O)c3cccs3)cc2[nH]1` is 70-fold lower in GI50: 11300 nM for the first, 161 nM for the second.

First: CSc1nc2ccc(C)cc2cc1/C=C1/C=C(c2ccccc2)NC1=O
Second: NC1=C(O)C(=O)C(c2c[nH]c3ccc(OCc4ccccc4)cc23)O1 (stereo not given)
The GI50 of the first is lower: 5770 nM for the first, > 100000 nM for the second.

Compared with `COC(=O)[C@@H](C)C[C@H](Cc1ccccc1)NC(=O)c1csc([C@@H](C[C@H](C(C)C)N(C)C(=O)[C@@H](NC(=O)[C@H]2CCCCN2C)C(C(F)(F)F)C(F)(F)F)OC(C)=O)n1`, `CC[C@@H](C(=O)[C@@H](C)[C@@H](O)[C@H](C)[C@@H]1O[C@@H]([C@@H](CC)C(=O)O)CC[C@@H]1C)[C@H]1O[C@]2(C=C[C@@H](O)[C@]3(CC[C@@](C)([C@H]4CC[C@](O)(CC)[C@H](C)O4)O3)O2)[C@H](C)C[C@@H]1C` is 9.2-fold higher in GI50: 21.3 nM for the first, 197 nM for the second.

First: N=C1C=C(N)C(=O)c2ccccc21
Second: CC(C)(C)CC(C)(C)NCC(O)COc1ccc(C(C)(C)c2ccc(OCC(O)CNC(C)(C)CC(C)(C)C)cc2)cc1 (stereo not given)
The GI50 of the first is 12-fold lower: 112 nM for the first, 1310 nM for the second.

Going from `O=S(=O)(Nc1ccc(Cl)c(Cl)c1)c1ccc(-c2cnc(C3CC3)o2)cc1` to `N=C(N)c1ccc(-c2ccc(-c3ccc(Cl)cc3Cl)s2)nc1`, the TGI rises from 736 nM to 3410 nM (4.6-fold).

Compared with `C[C@@H]1Cc2c(ccc3[nH]ncc23)[C@@H](c2ccc(NC3CN(CCCF)C3)cn2)N1CC(F)(F)F`, `CNc1nc(-c2ccc3c(N)n[nH]c3c2)cc(N2C[C@@H](C(=O)NC3CCCCC3)CC[C@H]2C)n1` is 11-fold lower in TGI: 27800 nM for the first, 2440 nM for the second.

`COc1ccc(S(=O)(=O)Nc2cc(Sc3cccc4cccnc34)c(O)c3ccccc23)cc1` and `CS(=O)(=O)CCNCc1ccoc1-c1ccc2ncnc(Nc3ccc(OCc4ccccc4)cc3)c2c1` are within 1.5-fold of each other in TGI: 3120 nM for the first, 4490 nM for the second.

Going from `Cc1nc2sc(C(=O)Nc3ccccc3)c(N)c2cc1C(=O)c1ccccc1` to `c1ccc(-c2cc3n4c(-c5ccccc5)nn(-c5ccccc5)c4cnc-3n2)cc1`, the TGI rises from 28900 nM to > 50000 nM.

Going from `CCOC(=O)N(O)c1ccc(/C=C/c2ccccc2)cc1` to `C[C@@H](C[C@H](CCO)c1ccccc1)c1ccc2ccccc2c1`, the TGI rises from 90.8 nM to 2980 nM (33-fold).

Compared with `c1ccc2c(NCCCN3CCOCC3)c3oc4ccccc4c3nc2c1`, `Cn1cc(-c2csc(-c3cn(C(=O)OC(C)(C)C)c4ccccc34)n2)c2cccnc21` is 3.6-fold higher in TGI: 3400 nM for the first, 12300 nM for the second.

Going from `COC(=O)c1cc(C)[nH]c2c(C)cc3nc4ccccc4c3c12` to `Cc1c2ccccc2c(C)n2c1nc1cc(Cl)c(Cl)cc12`, the TGI rises from 12300 nM to > 100000 nM.

First: CC1=C(SCCC(=O)OC(C[Se]C2=C(C)C(=O)c3ccccc3C2=O)C(=O)NC(C)(C)C)C(=O)c2ccccc2C1=O (stereo not given)
Second: CC(C)(C)c1ccc(CC(=O)Nc2sc3c(c2C(N)=O)CCC(=O)C3)cc1
The TGI of the first is 5.7-fold lower: 657 nM for the first, 3720 nM for the second.

First: CN(C)CCOc1ccc2c(c1)C(=O)/C(=C\c1ncc([N+](=O)[O-])n1C)C2
Second: COc1ccc(C2C3=C(COC3=O)N(CCO)c3cc4c(cc32)CCC4)cc1 (stereo not given)
The TGI of the first is 10-fold lower: 516 nM for the first, 5330 nM for the second.

`O=C(N/N=C/c1ccc(N(CCCl)CCCl)cc1)c1ccc(C(=O)N/N=C/c2ccc(N(CCCl)CCCl)cc2)cc1` and `CNC(=O)c1cc(-c2ccc(F)cc2)cc(-c2ccc(S(=O)(=O)N3CCCC3)cc2)c1N` cannot be ordered by TGI: 80600 nM for the first, > 25000 nM for the second.

Compared with `COc1cc2c(=O)n(CC3CCCCC3)c3c4cc[nH]c4ncc3c2cc1OC`, `COc1ccc(F)cc1-c1ccnc2[nH]c(C3=CCN(C4CCC(CC(=O)O)CC4)CC3)cc12` (stereo not given) is 58-fold lower in TGI: 25600 nM for the first, 444 nM for the second.

Going from `CCCCCCCCc1cc(O)ccc1O` to `COC(=O)Nc1nc2ccc(C(=O)c3cccs3)cc2[nH]1`, the TGI rises from 28600 nM to > 100000 nM.

Compared with `CSc1nc2ccc(C)cc2cc1/C=C1/C=C(c2ccccc2)NC1=O`, `NC1=C(O)C(=O)C(c2c[nH]c3ccc(OCc4ccccc4)cc23)O1` (stereo not given) is higher in TGI: 61300 nM for the first, > 100000 nM for the second.

Compared with `COC(=O)[C@@H](C)C[C@H](Cc1ccccc1)NC(=O)c1csc([C@@H](C[C@H](C(C)C)N(C)C(=O)[C@@H](NC(=O)[C@H]2CCCCN2C)C(C(F)(F)F)C(F)(F)F)OC(C)=O)n1`, `CC[C@@H](C(=O)[C@@H](C)[C@@H](O)[C@H](C)[C@@H]1O[C@@H]([C@@H](CC)C(=O)O)CC[C@@H]1C)[C@H]1O[C@]2(C=C[C@@H](O)[C@]3(CC[C@@](C)([C@H]4CC[C@](O)(CC)[C@H](C)O4)O3)O2)[C@H](C)C[C@@H]1C` is lower in TGI: > 16700 nM for the first, 2440 nM for the second.

Going from `N=C1C=C(N)C(=O)c2ccccc21` to `CC(C)(C)CC(C)(C)NCC(O)COc1ccc(C(C)(C)c2ccc(OCC(O)CNC(C)(C)CC(C)(C)C)cc2)cc1` (stereo not given), the TGI rises from 248 nM to 2770 nM (11-fold).
